Data: US20220401459A1, “NEW APPLICATION OF CHEMOKINE RECEPTOR CCR6 INHIBITOR IN PREVENTING RECURRENCE OF PSORIASIS” (RUIJIN HOSPITAL, SHANGHAI JIAOTONG UNIVERSITY SCHOOL OF …, priority 2019, published 2022)
Entries after “also recorded” stand apart in the source; their conditions may differ.

What was measured:
[1] = tested on: patients with psoriasis vulgaris; assay: Psoriasis vulgaris patients, topical GC for 2 weeks, then stopped until relapse (flow cytometry, RNA-seq); format: in vivo, human
Method: In this example, patients with psoriasis vulgaris were recruited and glucocorticoids (GC) were topically (externally) administered for 2 weeks of treatment. Thereafter, the administration were stopped until the disease relapsed, and further research on the mechanism of psoriasis recurrence was carried out.
Transcriptome sequencing (RNA-seq) was performed on the skin lesions of these patients before GC treatment, after GC treatment, and after disease recurrence.
In this example, in psoriasis patients receiving GC treatment, the changes in the proportion of CD3+ T cells and T17 cells in the skin and peripheral blood before treatment, after treatment and during recurrence were detected.

[2] = tested on: imiquimod (IMQ)-induced mouse psoriasis model; assay: Imiquimod (IMQ)-induced mouse psoriasis model: GC treatment, withdrawal, re-induced recurrence; format: in vivo; details: for proportion of γδT17 (IL-17-secreting) cells in lymph nodes: after drug administration was stopped (2 weeks); for recurrence of psoriasis: psoriasis re-induced with IMQ after withdrawal
From the text: (§1) In this example, an animal model to simulate clinical GC treatment for psoriasis was established (FIG. 2a). An imiquimod (IMQ)-induced mouse psoriasis model was utilized to simulate the whole clinical process of topical glucocorticoid treatment in patients with psoriasis: administering of drug—stop administering—recurrence of disease.
(§2) All mice were smeared with IMQ for three weeks. Among them, from the 6th day, GC or petrolatum (Vas) was applied to the skin of the mice, and all treatments were stopped on the 21st day. Mice entered a 2-week drug withdrawal period, after which IMQ was applied again for 7 consecutive days to induce psoriasis recurrence.
In order to simulate the clinical withdrawal period, all mice in the experimental group and the control group were rested for 2 weeks without treatment.
In this example, IMQ was applied to the mice in the experimental group and the control group again to simulate the recurrence of psoriasis after clinical withdrawal.

[3] = tested on: wild-type mice (WT), CCR6−/−, and CCR2−/− mice; assay: GC treatment and IMQ re-challenge in WT, CCR6−/− and CCR2−/− mice; format: in vivo, mouse
From the text: as §1, §2
Cytokine receptors CCR6 and CCR2 are known to mediate the migration of γδT17 cells in the occurrence of skin inflammation. In this example, the above-mentioned mechanism was studied in wild-type mice (WT), CCR6^−/−, and CCR2^−/− mice.

[4] = tested on: imiquimod (IMQ)-induced mouse psoriasis model; assay: Imiquimod (IMQ)-induced mouse psoriasis model: GC treatment, withdrawal, re-induced recurrence; format: in vivo; details: imiquimod replaced by mannan for inducing recurrence
[5] = after treatment and during recurrence
[6] = before, after treatment and during recurrence
[7] = 2 weeks after withdrawal, vs control group
[8] = TCRd−/− mice, IMQ re-challenge, GC vs Vas
[9] = CCR6−/− mice, after GC treatment
[10] = CCR6−/− mice, re-challenge with IMQ

For `C[C@@H]1C[C@H]2[C@@H]3C[C@H](F)C4=CC(=O)C(Cl)=C[C@]4(C)[C@@]3(F)[C@@H](O)C[C@]2(C)[C@@]1(O)C(=O)CO` [halometasone], the “expression of chemokines CCL20, CCL5, CCL2, CXCL10 in skin lesions (RNA-seq)” value [1, 5] was “decreased after treatment and increased during recurrence”, the “expression of psoriasis-related genes (IL-17, IL-23) in skin lesions” value [1, 5] was “decreased after treatment, but increased during recurrence” and the “expression of psoriasis-related genes (IL-17, IL-23) in skin lesions” value ([1]; after treatment and during recurrence, listed as GC) was “down-regulated”. For the same compound, the “proportion of IL-17-producing T cells (T17 cells) in skin lesions” value [1, 6] was “decreased after treatment and increased during recurrence”, the “proportion of IL-17-producing cells (T17 cells) in peripheral blood” value [1, 6] was “increased after treatment and decreased during recurrence” and the “proportion of IL-17-producing T cells (T17 cells) in skin lesions” value ([1]; before, after treatment and during recurrence, listed as GC) was “decreased”. For the same compound, the control of psoriasis ([1]; topical treatment) was “quickly and effectively control psoriasis”, the “proportions of γδT, Vγ4, Vγ4Vδ4 cells in draining and distant lymph nodes” value ([2]; 2 weeks after withdrawal) was “remained unchanged or slightly increased” and the “neutrophils infiltrated in the skin” value ([2]; 2 weeks after withdrawal, vs Vas control group) was “more neutrophils were infiltrated”. For the same compound, the “proportion of γδT17 in the skin” value [2, 7] was “also lower”, the “proportions of CD3, γδT, Vγ4Vδ4 in the skin” value [2, 7] was “still lower” and the “levels of IL-17 secreted by CD3 and γδT cells in the skin” value ([2]; IMQ re-challenge, GC vs Vas) was “not significantly different”. For the same compound, the “proportions of CD3 and γδT cells in the skin” value ([2]; IMQ re-challenge, GC vs Vas) was “not significantly different”, the “proportions of IL-17 secreted by γδT, Vγ4, Vγ4Vδ4 cells in distant lymph nodes” value ([2]; IMQ re-challenge, GC vs Vas) was “significantly lower” and the “proportions of Vγ4T17 and Vγ4Vδ4T17 cells in the skin” value ([2]; IMQ re-challenge, GC vs Vas) was “slightly decreased”. For the same compound, the “γδT17 in skin draining lymph nodes” value ([2]; IMQ re-challenge, GC vs Vas) was “no difference”, the “infiltrated neutrophils in the skin” value ([2]; IMQ re-challenge, vs Vas control group) was “exceeded” and the epidermal thickening fold ([2]; IMQ re-challenge, vs Vas group) was “also higher”. The “neutrophils infiltrated in the skin” value ([2]; TCRd−/− mice, 2 weeks after withdrawal, GC vs Vas) was “no difference”, the “ear / epidermal thickening” value [2, 8] was “no difference” and the “infiltrated neutrophils in the skin” value [2, 8] was “opposite results”. For the same compound, the “neutrophil infiltration in the skin” value ([2]; TCRd−/− mice, after treatment, experimental vs control group) was “no statistical difference”, the “proportion of γδT17 cells in lymph nodes after stimulation” value ([2]; after drug administration was stopped) was “still significantly increased” and the “proportion of γδT17 (IL-17-secreting) cells in lymph nodes” value [2] was “still significantly increased”. The “proportion of γδT17 (IL-17-secreting) cells in lymph nodes” value ([2]; listed as GC) was “significantly increased”, the “IL-17 secretion by Vγ4 cells and Vγ4Vδ4 cells in draining lymph nodes” value ([2]; after treatment) was “secreted more IL-17” and the “dermal γδT cells, especially Vγ4Vδ4 cells, in the skin” value ([2]; after treatment) was “significantly reduced”. The “proportion of CD3+ T cells in the skin” value ([2]; after treatment) was “significantly reduced”, the “proportion of IL-17 secretion of γδT, Vγ4, Vγ4Vδ4 cells in distal lymph nodes” value ([2]; after treatment) was “also higher” and the “proportion of Vγ4 cells in skin-draining lymph nodes” value ([2]; after treatment) was “increased”. For the same compound, the “proportion of γδT17 cells in draining and distal lymph nodes” value ([2]; after treatment) was “significantly increased”, the “proportion of γδT cells in skin-draining lymph nodes” value ([2]; after treatment) was “decreased” and the “proportions of IL1R expression in γδT, Vγ4, Vγ4Vδ4 cells in the skin” value ([2]; after treatment) was “all increased”. The “proportions of γδT, Vγ4, Vγ4Vδ4 T cells in distal lymph nodes” value ([2]; after treatment) was “higher”, the “neutrophil infiltration in the skin” value ([2]; after treatment, immunofluorescence and flow staining) was “reduced” and the “proportion of IL-17 secretion of γδT, Vγ4, Vγ4Vδ4 cells in distal lymph nodes” value ([2]; after treatment, listed as GC) was “all increased”. The “proportion of γδT17 cells in draining and distal lymph nodes” value ([2]; after treatment, listed as GC) was “increased in draining and distant lymph nodes”, the “proportions of CD3, γδ, Vγ4, Vγ4Vδ4 that secreted IL-17 (γδT17) in the skin” value ([2]; after treatment, listed as GC) was “reduced; also recorded: decreased in the skin” and the “proportions of γδT, Vγ4, Vγ4Vδ4 T cells in distal lymph nodes” value ([2]; after treatment, listed as GC) was “all increased”. For the same compound, the ear thickening speed ([2]; after using IMQ again for 3 days, vs control group) was “faster”, the ear thickness ([2]; day 21, vs control group (Vas)) was “significantly thinner” and the “proportion of γδT17 cells in draining and distal lymph nodes” value ([2]; psoriasis re-induced with IMQ) was “significant decrease”. For the same compound, the recurrence of psoriasis [2] was “relapsed rapidly”, the recurrence of psoriasis ([2]; listed as GC) was “more severe disease recurrence” and the “proportion of Vγ4 and Vγ4Vδ4 T cells in the skin” value ([2]; psoriasis re-induced with IMQ, GC group vs Vas) was “higher”. The “proportions of γδT, Vγ4, Vγ4Vδ4 cells in lymph nodes” value ([2]; psoriasis re-induced with IMQ, GC group vs Vas, listed as GC) was “varied slightly or did not change; also recorded: mild or no change”, the “proportion of γδT17 cells in draining and distal lymph nodes” value ([2]; psoriasis re-induced with IMQ, listed as GC) was “indistinguishable or even lower” and the “symptoms of skin psoriasis” value ([2]; topical treatment of ear skin inflammation) was “significantly relieved”. The “proportion of γδT17 cells in lymph nodes” value ([3]; CCR6 KO mice, recurrence after GC treatment) was “did not show a decrease”, the “redistribution of γδT17 cells in vivo” value ([3]; CCR6 knockout mice) was “did not affect” and the “ear thickness vs corresponding control” value [3, 9] was “no significant difference”. The “increased levels of IL-17 secreted by γδT, Vγ4, Vγ4Vδ4 cells in draining and distant sites” value [3, 9] was “not observed”, the “proportion of γδT cells in lymph nodes” value ([3]; CCR6−/− mice, after treatment) was “did not show an increase” and the disease recurrence [3, 10] was “significantly suppressed”. The “levels of IL-17 secreted by dermal γδT, Vγ4, Vγ4Vδ4 cells vs corresponding control group” value [3, 10] was “significantly lower”, the “proportions of γδT17, Vγ4T17, Vγ4Vδ4T17 cells in draining and distant lymph nodes (decrease)” value [3, 10] was “not” and the disease recurrence ([3]; WT and CCR2 mice, re-challenge with IMQ) was “faster disease recurrence”. The “ear thickness vs corresponding controls” value ([3]; WT and CCR2−/− mice, after GC treatment) was “significantly lower”, the “levels of IL-17 secreted by CD3, γδT, Vγ4, Vγ4Vδ4 cells in the skin vs corresponding control group” value ([3]; WT and CCR2−/− mice, re-challenge with IMQ) was “no significant difference” and the “proportions of γδT17, Vγ4T17, Vγ4Vδ4T17 cells in draining and distant lymph nodes” value ([3]; WT mice, re-challenge with IMQ) was “decreased”. The ear thickness ([3]; WT, CCR6−/− and CCR2−/− mice (three strains), after GC treatment) was “reduced”, the “levels of IL-17 secreted by CD3, γδT, Vγ4, Vγ4Vδ4 cells in the skin” value ([3]; three strains of mice, after GC treatment) was “all reduced” and the rapid disease recurrence [4] was “no longer had rapid disease recurrence”.
In the case of `CCCCCCCCc1ccc(CCC(N)(CO)CO)cc1` [FTY720], the “migration of γδT17 cells from the draining lymph nodes” value ([2]; GC group, recurrence) is reported as “prevented” and the “rapid recurrence of psoriasis” value ([2]; mice in the GC group given FTY720) is reported as “did not appear rapid recurrence”.
